Measured values as given in patent publication US8524498B2, “Methods and compositions for homologous recombination in human cells” (The General Hospital Corporation, priority 2009, dated 2013).

Experiments:
[1] = system: human pluripotent stem cells; test: Culture of human pluripotent stem cells with pharmacological inhibitors: passaging, proliferation, colony morphology; assay type: cell-based; details: for colony morphology of human pluripotent stem cells (ES cells and iPS cells): CHIR99021 (3 μM) together with PD98059 (50 μM)
Description: FIGS. 12A-12C: Inhibition of PKA or GSK3β signaling enhances human pluripotent stem cell proliferation rate and improves the introduction of transgenes by homologous recombination. 12A. Cell proliferation curve. Cell numbers of human iPS cells were counted at the indicated time intervals. Plotted is the cumulative cell number over 37 days of culture. All cells were maintained in standard human iPS culture conditions (e.g., Maherali et al. Cell Stem Cell 2008, 3:340-345) with indicated additions: DMSO ([…], 0.1%); CHIR99021 (GSK3β inhibitor, 3 μM), Kenpaullone (GSK3β inhibitor, 5 μM); BIO (GSK3β inhibitor, 15 μM) and SB216763 (GSK3β inhibitor, 1 μM). 12B Colony morphology of human pluripotent stem cells cultured in the presence of the GSK3β inhibitor (3 μM) and PD98059 (50 μM). 12C Influence of signaling inhibitors on the introduction of a 10 kb transgene construct carrying a puromycin selection cassette. Puromycin selection was applied at 0.25 μg/mL 48 hours after electroporation of human iPS cells with 20 μg of the linearized plasmid.
It was therefore sought to explore if small molecule inhibitors can affect human pluripotent stem cell colony morphology, proliferation and the ability to introduce transgenes using homologous recombination. Human pluripotent stem cells were maintained in standard medium (DMEM/F12 containing 20% knockout serum replacement, 2 mM L-Glutamine, 1% non-essential amino acids, 100 U of penicillin, 100 μg streptomycin, 0.1 mM beta-mercaptoethanol and 5 ng/mL bFGF, with or without pharmacological inhibitors.
The inhibition of GSK3β can increase the frequency of homologous recombination in both iPS cells derived in the presence of the five reprogramming factors as described above, and in human ES cells. The human ES cells acquired a mouse ES cell-like morphology, became capable of single cell expansion, and became capable of trypsin passaging when incubated with a GSK3β inhibitor. The effect and the increase in homologous recombination could be facilitated by co-addition of MEK inhibitor(s).

hLR5 cells [2] = test: Conversion of hLR5 cells into stable pluripotent LD-hiPS colonies; assay type: cell-based, human; details: for enhancement of hLR5 conversion: titration curve of GSK3β inhibitor alone or in combination with LIF and/or PD98059, even at high concentration (not shown); for conversion frequency of hLR5 cells into LD-hiPS cells: LIF and MEK inhibitor PD98059 added during the conversion process, about 0.01% without; for increase in conversion frequency compared to FGF alone: LIF and PD98059 (50 μM) in combination; for hLR5 conversion rate: agent added alone to bFGF after doxycycline withdrawal, PD98059 50 μM
Procedure: FIG. 9: Conversion rate of hLR5 cells into LD-hi PS cells is influenced by growth factors and inhibition of MEK signaling. Bar graph indicates the average number of stable pluripotent LD-hiPS colonies obtained after plating of 100.000 hLR5 cells in the presence of the indicated combinations of growth factors and MEK inhibitor (PD98059, 50 μM).
FIG. 4A outlines the procedure of converting hLR5 cells into stable iPS cells. Clonal hLR5 cell lines were plated at a density of 5000 cells per cm^2 in media containing human LIF and doxycycline to support the continued expression of ectopic reprogramming factors. The next day, doxycycline was withdrawn from the hLR5 cultures and cells were further maintained in the presence of bFGF alone (FIG. 4A). […] These cells are referred to herein as hLR5-derived human iPS cells (LD-hiPS) to signify their prior hLR5 status. The conversion frequency of hLR5 cells into LD-hiPS cells was low, approximately 0.01%, yet similar to the conversion of murine metastable iPS cells of the NOD strain into stable EpiSC-like iPS cells (Hanna et al., 2009). […] Whether LIF and/or small molecule inhibitors could positively influence the conversion of hLR5 cells to a stable pluripotent state was analyzed.

hLR5 cells [3] = test: SSEA1 cell surface marker expression by flow cytometry on hLR5 cells cultured with pathway inhibitors; assay type: cell-based, human; details: flow cytometry after 1 week culture in hLR5 media with inhibitor; Jak-inhibitor I 0.6 μM, PD98059 50 μM, PD1 84352 0.8 μM, PD0325901 1 μM
Description: (§1) FIGS. 2A-2F: LIF-responsiveness of hLR5 cells. 2A Western blot analysis of STAT3 phosphorylation in two independent hLR5 clones, with or without LIF-stimulation as indicated; 2B Immunostaining of STAT3 subcellular localization in hLR5 cells before (top panel) or after (bottom panel) LIF stimulation. Note the translocation of STAT3 from the cytoplasm (top panel) to the nucleus (bottom panel). Cell nuclei were visualized with DAPI; 2C Gene expression analysis of downstream target genes of the JAK/STAT signaling pathway in three hLR5 clones as well as human ES cell lines and conventional human iPS cell lines; 2D Flow cytometry analysis of SSEA 1 surface marker on hLR5 cells upon LIF removal. Lines indicate (i) LIF control, (ii) LIF substitution with bFGF, and (iii) no added growth factor; 2E Colony morphology of the hLR5 cells before (top panel) and after LIF substitution with bFGF; 2F Flow cytometry analysis of SSEA1 cell surface marker expression on hLR5 cells in the presence of small molecule inhibitors of the JAK/STAT and MEK/ERK signaling pathways. hLR5 cells were maintained in hLR5 media for 1 week in the presence of inhibitors. Grey shaded area: Jak-inhibitor, lines: MEK inhibitors (PD9805, PD1 84352 and PD0325901, as indicated). A line indicating a control (i.e., lacking inhibitor) is also present.
Upon removal or substitution of LIF from the hLR5 culture media, SSEA1 expression waned (FIG. 2D). In addition, a change in colony morphology was observed following LIF withdrawal (FIG. 2E). In murine ES cells, LIF activates the JAK/STAT3 and the RAS/MEK/MAPK signaling pathways, which have opposing roles in murine ES cell maintenance and differentiation. […] Specific inhibitors of JAK/STAT signaling or the MAPK/MEK signaling pathway were used to examine the relative role of these pathways in hLR5 cells. SSEA1 cell surface marker expression was examined by flow cytometry upon culture of hLR5 cells in the presence of specific inhibitors for 1 week.
Cells were collected by trypsinization and resuspended in ice-cold RPMI+0.5% FBS. Cells were incubated with the antibodies against the indicated surface antigens for 30 min at 4° C. The following antibodies were used for cell surface marker profiling: SSEA 1 (BD BIOSCIENCES™), TRA-1-81, TRA-1-60, SSEA3 and SSEA4 (MILLIPORE™). Cells were washed twice with RPMI/0.5% FBS and incubated with the relevant fluorophore-conjugated secondary antibody (BD BIOSCIENCES™) for 30 min at 4° C. Cells were washed twice with RPMI/0.5% FBS, resuspended in RPMI/0.5% FBS and analyzed on a BECTON-DICKINSON FACSCALIBUR™ cell analyzer.

[4] = system: JAK-STAT signaling pathway; test: LIF stimulation of hLR5 cells: JAK-STAT pathway activation (Western blot, STAT3 immunostaining, gene expression); assay type: cell-based, human
Description: as §1, with “present. […]” for “present.”

Cc1c[nH]c(-c2cnc(NCCNc3ccc(C#N)cn3)nc2-c2ccc(Cl)cc2Cl)n1 [CHIR99021]
colony morphology of human pluripotent stem cells (ES cells and iPS cells) [1]: adopted the characteristic tight dome-shaped morphology of murine ES cells | enhancement of hLR5 conversion (hLR5 cells [2]): did not enhance hLR5 conversion

C[S+](C)[O-] [DMSO]
trypsin passaging of human pluripotent stem cells ([1]; standard medium with inhibitor, DMSO 0.1%): allowed trypsin passaging | pluripotent stem cell proliferation rate ([1]; standard medium with inhibitor, DMSO 0.1%, cumulative cell number over 37 days): enhanced the pluripotent stem cell proliferation rate

O=C1Cc2c([nH]c3ccc(Br)cc23)-c2ccccc2N1 [Kenpaullone]
enhancement of hLR5 conversion (hLR5 cells [2]): did not enhance hLR5 conversion

O=C(NOCC1CC1)c1ccc(F)c(F)c1Nc1ccc(I)cc1Cl [PD1 84352]
expression of SSEA1 on hLR5 cells (hLR5 cells [3]): did not affect cell surface marker expression

COc1cccc(-c2cc(=O)c3ccccc3o2)c1N [PD98059]
colony morphology of human pluripotent stem cells (ES cells and iPS cells) [1]: adopted the characteristic tight dome-shaped morphology of murine ES cells | conversion frequency of hLR5 cells into LD-hiPS cells (hLR5 cells [2]): ~0.1% | increase in conversion frequency compared to FGF alone (hLR5 cells [2]): ~8 fold | hLR5 conversion rate (hLR5 cells [2]): slight increase | expression of SSEA1 on hLR5 cells (hLR5 cells [3]): did not affect cell surface marker expression

O=C(NOC[C@H](O)CO)c1ccc(F)c(F)c1Nc1ccc(I)cc1F [PD0325901]
expression of SSEA1 on hLR5 cells (hLR5 cells [3]): did not affect cell surface marker expression

Jak-inhibitor I
expression of SSEA1 on hLR5 cells (hLR5 cells [3]): marked decrease

LIF: human LIF growth factor activating JAK-STAT signaling
conversion frequency of hLR5 cells into LD-hiPS cells (hLR5 cells [2]): ~0.1% | increase in conversion frequency compared to FGF alone (hLR5 cells [2]): ~8 fold | hLR5 conversion rate (hLR5 cells [2]): slight increase | STAT3 nuclear translocation in hLR5 cells ([4]; 15 minute stimulation with human LIF, immunofluorescence): rapid STAT3 nuclear translocation | STAT3 phosphorylation in hLR5 cells ([4]; LIF stimulation, Western blot): robustly induces STAT3 phosphorylation
